In patent publication US20020132758A1, “Method for identifying compounds to treat medical pathologies associated with molecular crystallization” (priority 2001, published 2002):
Values after ≈ are worked out from the molar mass of the structure shown.

Assay: Water solubility of cholesterol at 37° C. determined by HPLC
Format: physicochemical
Experimental: Reference is made to two chemical compounds: pure cholesterol (C-pure), and modified cholesterol (C-mod). C-mod is made by partial thermal degradation of C-pure. As a consequence, C-mod is structurally very similar, but not identical, to C-pure. In the first of three steps to this example, a quantity of C-mod is produced by heating 10 grams of dry C-pure in the presence of oxygen for 30 minutes at 134° C., which is a temperature that is 15° below the melting point of the pure substance. In a second step to this example, 10 mg of C-pure is added to one liter of distilled water. The resulting suspension is then stirred at 50° C. for two hours, followed by stirring at 37° C. for 6 hours. The concentration of solute in solution at 37° is then determined by an HPLC analytical method. […] In the third and final step to this example, the process of the second step is repeated with 10 mg of C-pure in one liter of distilled water, and 10 mg of C-mod is also added to the initial suspension. In this case, HPLC determination of the concentration of C-pure in the supernatant solution results in a finding of 1.2 mg/100 mL. […] This increase in apparent solubility of C-pure is considered to be a consequence of the selective inhibition of crystal nucleation and growth, due to the presence of molecules that are similar to but not identical to those of the solute.

concentration of C-pure in the supernatant solution (apparent solubility) (10 mg C-pure plus 10 mg C-mod in one liter distilled water, 37° C., HPLC specific to C-pure): 1.2 mg/100 mL
solubility thermodynamic (thermodynamic from solid, 10 mg C-pure in one liter distilled water, stirred 50° C. 2 h then 37° C. 6 h, HPLC, no C-mod): 4.5 µg/mL (≈ 11.6 µM)
SMILES: CC(C)CCC[C@@H](C)[C@H]1CC[C@H]2[C@@H]3CC=C4C[C@@H](O)CC[C@]4(C)[C@H]3CC[C@]12C [C-pure, cholesterol]
